The values below come from PMC6358866 (International Journal of Molecular Sciences, 2019).

In test [1] the test system is Staphylococus aureus ATCC 6538 biofilm on CLs. The experiment in a line: Activity of lipopeptide and CL liquids against biofilms formed on contact lenses. The format is cell-based, Staphylococcus aureus. As to conditions: SA biofilm on CLs, lipopeptide in PBS, 24 h, resazurin. On the procedure:
(§1) Bacterial strains were obtained from the Polish Collection of Microorganisms (Polish Academy of Science, Wroclaw, Poland). Three Gram-positive and two Gram-negative strains linked with CL-related infections were chosen for the study (Staphylococus aureus ATCC 6538, Staphylococcus epidermidis ATCC 14990, Pseudomonas aeruginosa ATCC 9027, Escherichia coli ATCC 25922, and Enterococcus faecalis ATCC 29212). The bacteria were cultured in a Mueller Hinton Broth II (MHB, Biocorp, Warsaw, Poland) overnight, under aerobic conditions at 37 °C. After incubation, the liquid cultures were centrifuged (2500 rpm for 10 min) and washed with phosphoric buffer (PBS, AppliChem, Darmstadt, Germany) three times and resuspended in fresh MHB II for inoculums appropriate for the performed assays.
Bacterial biofilms were cultured on commercially available CLs (1-Day Acuvue Moist, containing Etafilcon A, obtained from Johnson and Johnson Vision Care, Jacksonsville, FL, USA). The CLs were placed in polystyrene 24-well plates (Orange Scientific, Braine-l’Alleud, Belgium) in bacterial suspensions in MHB II at initial inoculums of ca. 5 × 10^8 CFU/mL. After 24 h of incubation (aerobic conditions, 120 rpm shaking, 37 °C), all of the CLs were rinsed three times with PBS. […] After incubation, resazurin was added (final concentration per sample = 0.01%) and absorbance was measured as in the assays 4.3 and 4.4. […]

Test [2] has as its system Staphylococcus epidermidis ATCC 14990 biofilm on CLs. Kind of test: Lipopeptide, lens liquids and combinations against biofilms on CLs after withdrawal of the antimicrobial solution. The format is cell-based. As to conditions: SE biofilm on CLs, lipopeptide in PBS, after withdrawal and 24 h in MHB II. As to the method:
as §1
(§2) Bacterial biofilms were cultured on commercially available CLs (1-Day Acuvue Moist, containing Etafilcon A, obtained from Johnson and Johnson Vision Care, Jacksonsville, FL, USA). The CLs were placed in polystyrene 24-well plates (Orange Scientific, Braine-l’Alleud, Belgium) in bacterial suspensions in MHB II at initial inoculums of ca. 5 × 10^8 CFU/mL. After 24 h of incubation (aerobic conditions, 120 rpm shaking, 37 °C), all of the CLs were rinsed three times with PBS. […] After incubation, resazurin was added (final concentration per sample = 0.01%) and absorbance was measured as in the assays 4.3 and 4.4. Positive controls contained CLs with bacterial biofilms placed in pure PBS, while sterile CLs incubated in MHB II replaced with PBS served as negative controls. The experiments were performed in triplicate on three different days.
(§3) The assay was also performed for the samples where biofilms on CLs were exposed to pure CL solutions. Positive controls (100%) were biofilms on CLs in PBS, while negative controls were CLs previously incubated in pure MHB II replaced for the exposure time with PBS. After 24 h of exposure (aerobic conditions, 120 rpm shaking, 37 °C) all the solutions were removed, replaced with MHB II and the samples were incubated for another 24 h. Resazurin was then added in order to visualize the results. The results were read, calculated, and presented as in the previously-described sections.

The subject of test [3] is Pseudomonas aeruginosa ATCC 9027 biofilm on CLs. Described as above. As to conditions: PA biofilm on CLs, all tested concentrations, after withdrawal and 24 h in MHB II. The class given is cell-based. As to the method:
as §1, §2, §3

The test system of test [4] is Staphylococcus epidermidis ATCC 14990 biofilm. The experiment in a line: Effect of the lipopeptide on lens liquids against biofilms on 96-well polystyrene plates. The format is cell-based. As to conditions: SE biofilm on polystyrene, lipopeptide alone in PBS, 24 h. On the procedure:
(§4) Bacterial strains were obtained from the Polish Collection of Microorganisms (Polish Academy of Science, Wroclaw, Poland). Three Gram-positive and two Gram-negative strains linked with CL-related infections were chosen for the study (Staphylococus aureus ATCC 6538, Staphylococcus epidermidis ATCC 14990, Pseudomonas aeruginosa ATCC 9027, Escherichia coli ATCC 25922, and Enterococcus faecalis ATCC 29212). The bacteria were cultured in a Mueller Hinton Broth II (MHB, Biocorp, Warsaw, Poland) overnight, under aerobic conditions at 37 °C. […]
(§5) Bacterial suspensions were added to 96-well plates (Kartell, Noviglio, Italy) at initial inoculums of ca. 5 × 10^8 CFU/mL and incubated under aerobic conditions with shaking (120 rpm) at 37 °C for 24 h. […] After 1.5 h of incubation, the absorbance was measured at 570 and 600 nm using a microplate reader (Thermo Fisher Scientific, Waltham, MA, USA). […] The metabolic activity of bacteria in the samples was measured according to the following formula:
(§6) Positive controls (100%) were wells with pre-grown biofilms where the MHB II was replaced with pure PBS, while negative controls were wells with pure MHB II (also replaced with PBS). After 24 h of incubation (aerobic conditions, 120 rpm shaking, 37 °C), the solutions were replaced with resazurin in MHB II and the results were read and presented as described in Section 4.3.

Test [5] has as its system Enterococcus faecalis ATCC 29212 biofilm. Described as above. The class given is cell-based. As to conditions: EF biofilm on polystyrene, lipopeptide alone in PBS, 'the same concentration' (32 or 16 mg/L), 24 h. As to the method:
as §4, §5, §6

Test [6] has as its system Escherichia coli ATCC 25922 biofilm. Kind of test: Activity against biofilms on 96-well plates after withdrawal of the antimicrobial (additional 24 h in MHB II). The class given is cell-based. As to conditions: after withdrawal and additional 24 h in MHB II. As to the method:
(§7) Bacterial strains were obtained from the Polish Collection of Microorganisms (Polish Academy of Science, Wroclaw, Poland). Three Gram-positive and two Gram-negative strains linked with CL-related infections were chosen for the study (Staphylococus aureus ATCC 6538, Staphylococcus epidermidis ATCC 14990, Pseudomonas aeruginosa ATCC 9027, Escherichia coli ATCC 25922, and Enterococcus faecalis ATCC 29212). The bacteria were cultured in a Mueller Hinton Broth II (MHB, Biocorp, Warsaw, Poland) overnight, under aerobic conditions at 37 °C. […] Bacterial suspensions were added to 96-well plates (Kartell, Noviglio, Italy) at initial inoculums of ca. 5 × 10^8 CFU/mL and incubated under aerobic conditions with shaking (120 rpm) at 37 °C for 24 h. […] After exposure, the wells were washed three times with PBS and a solution of resazurin (Sigma Aldrich, St. […] This cell viability reagent is metabolized by bacterial dehydrogenases upon contact with living cells. As a result, the blue dye is reduced to a pink resorufin. After 1.5 h of incubation, the absorbance was measured at 570 and 600 nm using a microplate reader (Thermo Fisher Scientific, Waltham, MA, USA). […] The procedure was conducted as described in Section 4.3, with the difference that after exposure to antimicrobials, the wells were washed three times with PBS and pure MHB II was added. The samples were incubated for another 24 h (aerobic conditions, 120 rpm shaking, 37 °C). […] The absorbance was measured at the same wave lengths and metabolic activity was calculated according to the formula given in Section 4.3. The presented results are means of nine results obtained on three different days.

Test [7] relates to Staphylococcus epidermidis ATCC 14990 biofilm. The description is as above. The class given is cell-based. As to conditions: after withdrawal and additional 24 h in MHB II. On the procedure:
as §7

Test [8] deals with Enterococcus faecalis ATCC 29212 biofilm. The test is described as above. As to conditions: after withdrawal and additional 24 h in MHB II; for concentration permanently eradicating the biofilm: EF biofilm on polystyrene. The format is cell-based. As to the method:
as §7

Test [9] has as its system Pseudomonas aeruginosa ATCC 9027 biofilm. The test is described as above. The class given is cell-based. As to conditions: lowest concentration giving permanent reduction of metabolic activity by at least 50 ± 5%; after withdrawal and additional 24 h in MHB II. On the procedure:
as §7

The mark [10] stands for this setting: lowest concentration giving permanent reduction of metabolic activity by at least 50 ± 5%.
The mark [11] stands for this setting: lowest concentration giving permanent reduction of metabolic activity by at least 90 ± 5%.

With (C10)2-KKKK-NH2 [Lipopeptide], the “concentration reducing metabolic activity of bacteria by at least 90%” value in [1] was 16 mg/L. For the same substance, the “concentration permanently removing biofilm from CLs” value in [2] was 16 mg/L. Moreover, in test [3], the “regrowth of bacterial population after removal” value is reported as “fully restored”. The “concentration at which highly active against biofilm” value in test [4] is 16 mg/L. Further, in test [5], the “reduction of metabolic activity in the biofilm” value is listed as “ca. 95%”. The “MBEC II 50” value in [6] (setting [10]) was 64 µg/mL; in test [7] (setting [10]), 16 µg/mL; in [8] (setting [10]), 32 µg/mL; in test [9], 64 µg/mL. The “MBEC II 90” value was 64 µg/mL in [6] (setting [11]), 16 µg/mL in [7] (setting [11]) and 32 µg/mL in test [8] (setting [11]). Further, the “concentration giving a permanent antibiofilm effect” value in [7] (SE biofilm on polystyrene) was determined as 16 mg/L. Further, the figures for the “concentration permanently eradicating the biofilm” value in [8] (listed as (C10)2-KKKK-NH2) and in test [8] (listed as lipopeptide) were 32 mg/L and 32 to 256 mg/L, respectively.
